# In patent US10815210B2, “Benzocyclobutane derivatives useful as dual SGLT1 / SGLT2 modulators” (Janssen Pharmaceutica NV, priority 2016, dated 2020):
# Key:
# human SGLT1 = target: T1, human SGLT1 (Homo sapiens, UniProt P13866); assay: SGLT1 assay: Na-dependent 14C-AMG uptake in CHO-K1 cells stably expressing human SGLT1; format: cell-based; details: for IC50: 500 μM AMG, 2 hours at 37° C.
# T1 construct: expressed in transfected cells; host or cells: CHO-K1
# T1 sequence (P13866 1-664): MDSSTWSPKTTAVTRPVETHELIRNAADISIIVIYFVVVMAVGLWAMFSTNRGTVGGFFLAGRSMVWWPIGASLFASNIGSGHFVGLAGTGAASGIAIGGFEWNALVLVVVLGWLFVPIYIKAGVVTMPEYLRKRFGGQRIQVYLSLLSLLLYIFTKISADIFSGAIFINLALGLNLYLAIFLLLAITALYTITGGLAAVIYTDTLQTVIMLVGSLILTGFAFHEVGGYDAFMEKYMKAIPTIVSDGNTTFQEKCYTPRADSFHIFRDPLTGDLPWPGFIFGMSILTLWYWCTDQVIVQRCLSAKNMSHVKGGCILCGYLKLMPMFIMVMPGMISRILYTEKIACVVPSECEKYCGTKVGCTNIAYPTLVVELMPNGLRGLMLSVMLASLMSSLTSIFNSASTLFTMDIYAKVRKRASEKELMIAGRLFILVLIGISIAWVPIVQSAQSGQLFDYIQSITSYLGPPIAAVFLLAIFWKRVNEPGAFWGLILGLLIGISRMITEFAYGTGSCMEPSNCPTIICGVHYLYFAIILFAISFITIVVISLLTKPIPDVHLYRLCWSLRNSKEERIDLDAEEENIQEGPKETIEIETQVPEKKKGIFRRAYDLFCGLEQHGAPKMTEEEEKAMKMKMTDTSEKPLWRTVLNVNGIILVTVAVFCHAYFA
# Description: (§1) SGLT1 and SGLT2 were cloned in form of cDNA from human small intestine (Genbank M24847), and from human kidney (Genbank M95549), respectively. Subsequently, each full cDNA was subcloned into pcDNA with each construct's integrity verified through follow-on sequencing. To generate CHO-K1 cells that stably express human SGLT1 or human SGLT2, CHO-K1 cells were transfected using DMRIE-C reagent (Life Technologies, Gaithersburg, Md.). Transfected cells were then selected in the presence of 500 μg/ml of the Geneticin (G418 Cellgro Catalog No. 30234-CI)
# (§2) Individual clones were then characterized using the following cell-based assay for sodium-dependent glucose transport:
# (§3) Inhibition of SGLT1 and SGLT2 activity was assessed in CHO K1 cells stably expressing either human SGLT1 or SGLT2, using the SGLT specific glucose analog methyl-glucopyranoside (Sigma Catalog No. M-9376). Cells were plated (45,000 cells/well) in white wall 96-well plates (COSTAR, Cat#3903) for 24 hours in growth medium, then a final concentration of 10 mM Na-Butyrate (ALDRICH Cat#30341-0) was added. The cells were incubated for 24 hours. On the day of the assay, cells were rinsed and treated with test compounds (at concentrations of 0.001 μM to 10 μM) in assay buffer (50 mM HEPES, 20 mM Tris base, 5 mM KCl, 1 mM MgCl2, 1 mM CaCl2 and 137 mM NaCl, pH 7.4) for 10 minutes. Cells were then incubated with ^14C-a-methyl-d-glucopyranoside (AMG, Amersham Catalog No. CFB 76), using 0.07 μCi per well in 500 μM AMG final concentration. The cells were incubated for 2 hours at 37° C. with 5% CO2 and washed two times with ice-cold Phosphate Buffer Solution (Cellgro Catalog No. 21030-CV). The cells were then solubilized by adding 60 μl of MICROSCINT™20 and the Na-dependent ^14C-AMG uptake was quantified by measuring radioactivity. Plates were counted in a TopCount (Packard, Meriden, Conn.)
# human SGLT2 = target: T2, human SGLT2 (Homo sapiens, UniProt P31639); assay: SGLT2 assay: Na-dependent 14C-AMG uptake in CHO-K1 cells stably expressing human SGLT2; format: cell-based; details: for IC50: 500 μM AMG, 2 hours at 37° C.
# T2 construct: expressed in transfected cells; host or cells: CHO-K1
# T2 sequence (P31639 1-672): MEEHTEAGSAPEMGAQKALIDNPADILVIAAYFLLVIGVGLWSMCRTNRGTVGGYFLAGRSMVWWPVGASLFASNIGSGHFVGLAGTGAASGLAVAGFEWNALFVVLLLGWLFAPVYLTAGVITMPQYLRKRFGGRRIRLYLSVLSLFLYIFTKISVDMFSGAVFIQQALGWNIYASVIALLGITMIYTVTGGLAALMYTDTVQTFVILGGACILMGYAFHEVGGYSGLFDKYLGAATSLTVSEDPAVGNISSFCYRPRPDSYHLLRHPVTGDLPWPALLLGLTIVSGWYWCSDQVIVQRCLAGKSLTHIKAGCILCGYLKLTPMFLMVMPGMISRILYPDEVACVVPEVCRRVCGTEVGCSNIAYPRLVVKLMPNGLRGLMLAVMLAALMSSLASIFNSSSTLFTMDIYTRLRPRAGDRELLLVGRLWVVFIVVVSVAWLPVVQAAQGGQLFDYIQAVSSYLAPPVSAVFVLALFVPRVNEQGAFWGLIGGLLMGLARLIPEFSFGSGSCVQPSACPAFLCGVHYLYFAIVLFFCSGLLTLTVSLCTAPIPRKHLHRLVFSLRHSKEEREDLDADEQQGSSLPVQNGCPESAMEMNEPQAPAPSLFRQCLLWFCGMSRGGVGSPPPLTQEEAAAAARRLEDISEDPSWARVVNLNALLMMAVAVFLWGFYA
# Description: as §1, §2, §3
Structure (SMILES),IC50 (human SGLT1),IC50 (human SGLT2),inhibition at 0.3 µM (human SGLT1),inhibition at 0.03 µM (human SGLT2)
"Cc1ccc([C@@H]2O[C@H](CO)C(F)(F)[C@H](O)[C@H]2O)cc1Cc1ccc2c(c1)CC2 [Compound 91, (2S,3R,4R,6R)-2-(3-(bicyclo[4.2.0]octa-1(6),2,4-trien-3-ylmethyl)-4-methylphenyl)-5,5-difluoro-6-(hydroxymethyl)tetrahydro-2H-pyran-3,4-diol]",49 nM,1 nM,,
CCc1cc(OC2CC2)c([C@@H]2O[C@H](CO)[C@@H](O)[C@H](O)[C@H]2O)cc1Cc1ccc2c(c1)CC2 [Compound 116],13 nM,2 nM,,
CCOc1cc(Cl)c(Cc2ccc3c(c2)CC3)cc1[C@@H]1O[C@H](CO)C(F)(F)[C@H](O)[C@H]1O [Compound 104],14 nM,1 nM,,
"[2H]C1([2H])Cc2ccc(Cc3cc([C@@H]4O[C@H](CO)[C@@H](O)[C@H](O)[C@H]4O)ccc3C)cc21 [Compound 65, (2S,3R,4R,5S,6R)-2-[3-[(8,8-dideuterium)bicyclo[4.2.0]octa-1(6),2,4-trien-3-ylmethyl]-4-methylphenyl]-6-(hydroxymethyl)oxane-3,4,5-triol]",24 nM,3 nM,,
"[2H]C([2H])(c1ccc2c(c1)CC2)c1cc([C@@H]2O[C@H](CO)[C@@H](O)[C@H](O)[C@H]2O)ccc1Cl (single isomer, unassigned) [Compound 54]",63 nM,1 nM,,
"COc1cc(C)c(Cc2ccc3c(c2)CC3)cc1[C@@H]1O[C@H](CO)C(F)(F)[C@H](O)[C@H]1O [Compound 93, (2S,3R,4R,6R)-2-(5-(bicyclo[4.2.0]octa-1(6),2,4-trien-3-ylmethyl)-2-methoxy-4-methylphenyl)-5,5-difluoro-6-(hydroxymethyl)tetrahydro-2H-pyran-3,4-diol]",95 nM,3 nM,,
CCOc1cc(OC)c(Cc2ccc3c(c2)CC3)cc1[C@@H]1O[C@H](CO)C(F)(F)[C@H](O)[C@H]1O [Compound 109],158 nM,5 nM,,
COc1cc(OC)c([C@@H]2O[C@H](CO)C(F)(F)[C@H](O)[C@H]2O)cc1Cc1ccc2c(c1)CC2 [Compound 108],27 nM,1 nM,,
[2H]C([2H])([2H])Oc1cc(CC)c(Cc2ccc3c(c2)CC3)cc1[C@@H]1O[C@H](CO)[C@@H](O)[C@H](O)[C@H]1O [Compound 111],13 nM,,,
[2H]C([2H])([2H])Oc1cc(C)c(C([2H])([2H])c2ccc3c(c2)CC3)cc1[C@@H]1O[C@H](CO)[C@@H](O)[C@H](O)[C@H]1O [Compound 119],41 nM,,,

# Further lines, results first:
IC50 (human SGLT1),IC50 (human SGLT2),inhibition at 0.3 µM (human SGLT1),inhibition at 0.03 µM (human SGLT2),Structure (SMILES)
18 nM,3 nM,,,"CCc1ccc([C@@H]2O[C@H](CO)[C@@H](O)[C@H](O)[C@H]2O)cc1Cc1ccc2c(c1)CC2 [Compound 4, (2S,3R,4R,5S,6R)-2-(3-((1,2-dihydrocyclobutabenzen-4-yl)methyl)-4-ethylphenyl)-6-(hydroxymethyl)-tetrahydro-2H-pyran-3,4,5-triol]"
37 nM,2 nM,,,CCOc1cc(OC)c(Cc2ccc3c(c2)CC3)cc1[C@@H]1O[C@H](CO)[C@@H](O)[C@H](O)[C@H]1O [Compound 114]
,,50%,40%,"Cc1c(Cc2ccc3c(c2)CC3)ccc(O)c1[C@@H]1O[C@H](CO)[C@@H](O)[C@H](O)[C@H]1O [Compound 28, (2S,3R,4R,5S,6R)-2-(3-((1,2-dihydrocyclobutabenzen-4-yl)methyl)-6-hydroxy-2-methylphenyl)-6-(hydroxymethyl)-tetrahydro-2H-pyran-3,4,5-triol]"
,,62%,38%,"OC[C@H]1O[C@@H](c2cc(Cc3ccc4c(c3)CC4)c(F)cc2O)[C@H](O)[C@@H](O)[C@@H]1O [Compound 19, (2S,3R,4R,5S,6R)-2-(5-(bicyclo[4.2.0]octa-1(6),2,4-trien-3-ylmethyl)-4-fluoro-2-hydroxyphenyl)-6-(hydroxymethyl)tetrahydro-2H-pyran-3,4,5-triol]"
32 nM,1 nM,,,"CCc1cc(OC)c([C@@H]2O[C@H](CO)[C@@H](O)[C@H](O)[C@H]2O)cc1Cc1ccc2c(c1)CC2 [Compound 13, (2S,3R,4R,5S,6R)-2-(5-((1,2-dihydrocyclobutabenzen-4-yl)methyl)-4-ethyl-2-methoxyphenyl)-6-(hydroxymethyl)-tetrahydro-2H-pyran-3,4,5-triol]"
,,85%,35%,"[2H]C1([2H])Cc2ccc(Cc3cc([C@@H]4O[C@H](CO)[C@@H](O)[C@H](O)[C@H]4O)c(F)cc3C)cc21 [Compound 70, (2S,3R,4R,5S,6R)-2-(5-{[(8,8-dideuterium)bicyclo[4.2.0]octa-1(6),2,4-trien-3-yl]methyl}-2-fluoro-4-methylphenyl)-6-(hydroxymethyl)oxane-3,4,5-triol]"
,,0%,43%,"N#Cc1ccc([C@@H]2O[C@H](CO)[C@@H](O)[C@H](O)[C@H]2O)cc1Cc1ccc2c(c1)CC2 [Compound 16, 2-((1,2-dihydrocyclobutabenzen-4-yl)methyl)-4-((2S,3R,4R,5S,6R)-3,4,5-trihydroxy-6-(hydroxymethyl)-tetrahydro-2H-pyran-2-yl)benzonitrile]"
34 nM,2 nM,,,"CCc1cc(OCF)c([C@@H]2O[C@H](CO)[C@@H](O)[C@H](O)[C@H]2O)cc1Cc1ccc2c(c1)CC2 [Compound 42, (2S,3R,4R,5S,6R)-2-(5-((1,2-dihydrocyclobutabenzen-4-yl)methyl)-4-ethyl-2-(fluoromethoxy)phenyl)-6-(hydroxymethyl)-tetrahydro-2H-pyran-3,4,5-triol]"
7 nM,,,,"[2H]C([2H])(c1ccc2c(c1)CC2)c1cc([C@@H]2O[C@H](CO)[C@@H](O)[C@H](O)[C@H]2O)c(O)cc1Cl [Compound 55, (2S,3R,4R,S,6R)-2-(5-[bicyclo[4.2.0]octa-1(6),2,4-trien-3-yl(dideuterium)methyl]-4-chloro-2-hydroxyphenyl)-6-(hydroxymethyl)oxane-3,4,5-triol]"
5 nM,,,,"OC[C@H]1O[C@@H](c2cc(Cc3ccc4c(c3)CC4)c(Cl)cc2O)[C@H](O)[C@@H](O)[C@@H]1O [Compound 8, (2S,3R,4R,5S,6R)-2-(5-(bicyclo[4.2.0]octa-1(6),2,4-trien-3-ylmethyl)-4-chloro-2-hydroxyphenyl)-6-(hydroxymethyl)oxane-3,4,5-triol]"
15 nM,,,,[2H]C([2H])([2H])Oc1cc(C)c(Cc2ccc3c(c2)CC3)cc1[C@@H]1O[C@H](CO)[C@@H](O)[C@H](O)[C@H]1O [Compound 110]
